According to patent publication US20160095894A1, “DIETETIC MULTI-COMPONENT SYSTEM” (priority 2011, published 2016):

Legend:
[1] = Treatment of cardiovascular diseases; format: in vivo, human
Experimental: The subjects were treated with sodium carbonate with about at least 2 g daily, with improvement occurring within short time, within about 1-2 weeks.

[2] = Treatment of skin diseases (psoriasis, neurodermatitis); format: in vivo, human
Experimental: The term skin diseases describes in particular psoriasis and neurodermatitis. Basically, in the case of psoriasis patients the inventive dosing schedule is very welcome, because it counterbalances the negative effects of very strong medications that are administered in such cases; these improve by 65-80% with the inventive dosing schedule.
The subjects were treated with sodium carbonate with about 2 g+daily, after which the normal effect is achieved as described above; 1-2 weeks.

[3] = tested on: tumor tissue; test: Treatment of cancer under medical supervision
[4] = Treatment of obesity, cellulitis, cellulite, acne
[5] = Treatment of acidosis, test series with and without Na
[6] = test series 2, at least 2 g daily

## O=C([O-])[O-].[Na+].[Na+] [sodium carbonate]
[1]; about at least 2 g daily
  time until improvement occurred: 1-2 weeks
[1]; cardiovascular diseases
  uptake of mineral substances and natural medicines: improved considerably
[1]; cardiovascular diseases, followed by vitamins and trace elements
  rehabilitation: 100%
[2]; about 2 g+ daily
  time until the normal effect is achieved: 1-2 weeks
[2]; psoriasis or neurodermatitis patients
  considerable improvement: about 80%
[3]; cancer, at least 2 g daily
  time until tissue reacted perceptibly: 1-2 weeks
[3]; cancer, statements made by the subjects
  swelling reduced: about 80%
[3]; cancer, to date
  reduction in tumor size: about 30%
[3]; used internally and externally
  uptake of mineral substances and natural medicines: improved considerably
[4]; followed by high-dose vitamins and acids for several weeks, no yo-yo effect over about 2 years
  weight change: extensive weight reduction
[4]; obesity, cellulitis, cellulite, acne
  rehabilitation: 95%
[4]; test series 2
  uptake of mineral substances and natural medicines: improved considerably
[4]; [6]
  time until tissue responded perceptibly: 1-2 weeks
[5]; test series 2
  uptake of mineral substances and natural medicines: improved considerably and obviously
[5]; [6]
  time until improvement occurred: 1-2 weeks
[5]; test series 2, followed by vitamins and trace elements
  successful: 100%
